These results are taken from patent publication US4656180A, “Diamine derivatives and pharmaceutical preparations containing these compounds” (Ludwig Heumann & Co., GmbH, priority 1984, dated 1987).

For series [1] the following is noted: therapeutic use; several daily doses of tablets required; cited from earlier work.
The target of series [2] is T1, histamine-H2 receptors (Cavia porcellus, UniProt P47747).
T1 construct: in vitro on isolated guinea-pigs' atrium; from tissue; host or cells: isolated guinea-pig atrium (right atrium per b6)
T1 sequence (P47747 whole entry): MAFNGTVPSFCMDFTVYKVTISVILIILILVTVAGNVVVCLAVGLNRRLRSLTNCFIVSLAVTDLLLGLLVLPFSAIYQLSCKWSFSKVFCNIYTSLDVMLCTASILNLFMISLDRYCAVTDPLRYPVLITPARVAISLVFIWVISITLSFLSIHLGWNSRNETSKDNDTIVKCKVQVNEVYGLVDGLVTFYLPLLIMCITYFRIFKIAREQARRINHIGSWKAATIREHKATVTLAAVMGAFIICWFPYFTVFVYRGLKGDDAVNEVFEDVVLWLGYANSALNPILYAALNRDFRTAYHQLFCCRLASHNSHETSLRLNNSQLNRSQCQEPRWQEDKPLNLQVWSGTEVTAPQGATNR
Briefly: pA2-values in vitro on isolated guinea-pigs' atrium (H2-antagonistic activity). Also noted: species or system guinea-pig. The text has this:
J. Pharmacol. Chemother. ", 27, 427 (1966) and Black et al, "Nature", 236, 385 (1971)].
One recognized method of determining the H2 -antagonistic activity is the determination of the pA2 -values in vitro on isolated guinea-pigs' atrium (see Ariens, Molecular Pharmacology, Volume 1, Academic Press, New York, 1964).

`CNC(=C[N+](=O)[O-])NCCSCc1ccc(CN(C)C)o1` [ranitidine]: the half life result in series [1] is on record as “relatively short half life”. Consider `CN/C(=N/CCSCc1nc[nH]c1C)NC#N` [Cimetidine], for which, in series [1], the half life entry is “relatively short half life”. In the case of `[O-][s+]1nc(NCC(O)COc2cccc(CN3CCCCC3)c2)c(NCC(O)COc2cccc(CN3CCCCC3)c2)n1` (stereo not drawn) [Example 4], in series [2], the Kb is 7.24 nM.

A word on the Kb: it is the affinity of an antagonist, worked out from how it opposes an agonist. Read a high Kb as lower antagonist affinity.
